Results as given in ChEMBL document CHEMBL5303573, “Mapping human microbiome drug metabolism by gut bacteria and their genes” (Nature, 2019).

Columns and labels:
[1] = The drug is tested on Bacteroides fragilis strain: ATCC43859 for biotransformation. The drug concentrations were measured before and after a 12-h incubation by liquid-chromatography-coupled mass spectrometry (LC–MS); details: 2 µM
[2] = The drug is tested on Eubacterium hallii strain: DSM3353 for biotransformation. The drug concentrations were measured before and after a 12-h incubation by liquid-chromatography-coupled mass spectrometry (LC–MS); details: anaerobutyricum hallii, 2 µM
[3] = The drug is tested on Clostridium symbiosum strain: ATCC14940 for biotransformation. The drug concentrations were measured before and after a 12-h incubation by liquid-chromatography-coupled mass spectrometry (LC–MS); details: 2 µM
[4] = The drug is tested on Ruminococcus lactaris strain: ATCC29176 for biotransformation. The drug concentrations were measured before and after a 12-h incubation by liquid-chromatography-coupled mass spectrometry (LC–MS); details: 2 µM
[5] = bacteroides thetaiotaomicron, 12 h, 2 µM
Description: The drug is tested on Bacteroides thetaiotaomicron strain: VPI-5482 for biotransformation. The drug concentrations were measured before and after a 12-h incubation by liquid-chromatography-coupled mass spectrometry (LC–MS)

[6] = The drug is tested on Bacteroides xylanisolvens strain: DSM18836 for biotransformation. The drug concentrations were measured before and after a 12-h incubation by liquid-chromatography-coupled mass spectrometry (LC–MS); details: 2 µM
[7] = The drug is tested on Subdoligranulum variabile strain: DSM15176 for biotransformation. The drug concentrations were measured before and after a 12-h incubation by liquid-chromatography-coupled mass spectrometry (LC–MS); details: 2 µM
[8] = The drug is tested on Ruminococcus torques strain: ATCC27756 for biotransformation. The drug concentrations were measured before and after a 12-h incubation by liquid-chromatography-coupled mass spectrometry (LC–MS); format: ADME; parameters: dose 2 uM, timepoint 0 vs 12 hours; details: 2 µM
[9] = The drug is tested on Bacteroides dorei strain: DSM17855 for biotransformation. The drug concentrations were measured before and after a 12-h incubation by liquid-chromatography-coupled mass spectrometry (LC–MS); details: phocaeicola dorei, 2 µM
[10] = The drug is tested on Providencia rettgeri strain: DSM1131 for biotransformation. The drug concentrations were measured before and after a 12-h incubation by liquid-chromatography-coupled mass spectrometry (LC–MS); format: ADME; parameters: dose 2 uM, timepoint 0 vs 12 hours; details: 2 µM
[11] = The drug is tested on Blautia hansenii strain: DSM20583 for biotransformation. The drug concentrations were measured before and after a 12-h incubation by liquid-chromatography-coupled mass spectrometry (LC–MS); details: 2 µM
[12] = The drug is tested on Parabacteroides merdae strain: ATCC43184 for biotransformation. The drug concentrations were measured before and after a 12-h incubation by liquid-chromatography-coupled mass spectrometry (LC–MS); details: 2 µM
[13] = segatella copri, 12 h, 2 µM
Description: The drug is tested on Prevotella copri strain: DSM18205 for biotransformation. The drug concentrations were measured before and after a 12-h incubation by liquid-chromatography-coupled mass spectrometry (LC–MS)

[14] = The drug is tested on Escherichia coli strain: BW25113 for biotransformation. The drug concentrations were measured before and after a 12-h incubation by liquid-chromatography-coupled mass spectrometry (LC–MS); details: 2 µM
[15] = The drug is tested on Bacteroides pectinophilus strain: ATCC43243 for biotransformation. The drug concentrations were measured before and after a 12-h incubation by liquid-chromatography-coupled mass spectrometry (LC–MS); details: 2 µM
[16] = parabacteroides distasonis, 12 h, 2 µM
Description: The drug is tested on Parabacteroides distasonis strain: ATCC8503 for biotransformation. The drug concentrations were measured before and after a 12-h incubation by liquid-chromatography-coupled mass spectrometry (LC–MS)

[17] = The drug is tested on Clostridium sporogenes strain: ATCC15579 for biotransformation. The drug concentrations were measured before and after a 12-h incubation by liquid-chromatography-coupled mass spectrometry (LC–MS); details: 2 µM
[18] = The drug is tested on Bacteroides ovatus strain: ATCC8483 for biotransformation. The drug concentrations were measured before and after a 12-h incubation by liquid-chromatography-coupled mass spectrometry (LC–MS); details: 2 µM
[19] = akkermansia muciniphila, 12 h, 2 µM
Description: The drug is tested on Akkermansia muciniphila strain: ATCC BAA-835 for biotransformation. The drug concentrations were measured before and after a 12-h incubation by liquid-chromatography-coupled mass spectrometry (LC–MS)

[20] = The drug is tested on Providencia stuartii strain: ATCC25827 for biotransformation. The drug concentrations were measured before and after a 12-h incubation by liquid-chromatography-coupled mass spectrometry (LC–MS); details: 2 µM

| Bacterial Biotransformation [1] | Bacterial Biotransformation [2] | Bacterial Biotransformation [3] | Bacterial Biotransformation [4] | Bacterial Biotransformation [5] | Bacterial Biotransformation [6] | Bacterial Biotransformation [7] | Bacterial Biotransformation [8] | Bacterial Biotransformation [9] | Bacterial Biotransformation [10] | Bacterial Biotransformation [11] | Bacterial Biotransformation [12] | Bacterial Biotransformation [13] | Bacterial Biotransformation [14] | Bacterial Biotransformation [15] | Bacterial Biotransformation [16] | Bacterial Biotransformation [17] | Bacterial Biotransformation [18] | Bacterial Biotransformation [19] | Bacterial Biotransformation [20] | SMILES |
| --- | --- | --- | --- | --- | --- | --- | --- | --- | --- | --- | --- | --- | --- | --- | --- | --- | --- | --- | --- | --- |
| Compound metabolized | Compound NOT metabolized | Compound NOT metabolized | Compound NOT metabolized | Compound metabolized | Compound metabolized | Compound NOT metabolized | Compound NOT metabolized | Compound metabolized | Compound NOT metabolized | Compound metabolized | Compound metabolized | Compound metabolized | Compound NOT metabolized | Compound NOT metabolized | Compound metabolized | Compound NOT metabolized |  |  |  | CCC(=O)NCC[C@@H]1CCc2ccc3c(c21)CCO3 [RAMELTEON] |
| Compound NOT metabolized | Compound NOT metabolized | Compound NOT metabolized | Compound NOT metabolized | Compound NOT metabolized | Compound NOT metabolized | Compound NOT metabolized | Compound NOT metabolized | Compound NOT metabolized | Compound NOT metabolized | Compound NOT metabolized | Compound NOT metabolized | Compound metabolized | Compound NOT metabolized | Compound NOT metabolized | Compound NOT metabolized | Compound NOT metabolized | Compound metabolized | Compound NOT metabolized | Compound NOT metabolized | COc1ccc(/C=C/C(=O)Nc2ccccc2C(=O)O)cc1OC |
| Compound NOT metabolized | Compound NOT metabolized | Compound NOT metabolized | Compound NOT metabolized | Compound NOT metabolized |  | Compound NOT metabolized | Compound NOT metabolized | Compound NOT metabolized | Compound NOT metabolized | Compound NOT metabolized | Compound NOT metabolized |  | Compound NOT metabolized | Compound NOT metabolized | Compound NOT metabolized | Compound NOT metabolized | Compound NOT metabolized | Compound NOT metabolized | Compound NOT metabolized | CCN(CC)CCNC(=O)c1cc(S(C)(=O)=O)ccc1OC [TIAPRIDE] |
| Compound metabolized | Compound metabolized | Compound metabolized |  | Compound NOT metabolized | Compound metabolized | Compound NOT metabolized | Compound NOT metabolized | Compound metabolized | Compound NOT metabolized | Compound metabolized |  | Compound NOT metabolized | Compound NOT metabolized | Compound NOT metabolized | Compound metabolized | Compound metabolized |  |  |  | COc1c2occc2cc2ccc(=O)oc12 [METHOXSALEN] |
